Data taken from PubChem BioAssay AID256 (DTP/NCI, 2004).
Where “and” joins values, the source holds several entries; their conditions need not be identical. Identical values can stand only once. Toxic doses and inconclusive results are not listed.

Test system: CD2F1 mice, L1210 leukemia ip, survival T/C
Assay: NCI In Vivo Anticancer Drug Screen. Data for tumor model L1210 Leukemia (intraperitoneal) in CD2F1 (CDF1) mice
Conditions: higher = longer survival
In short: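 Compound-dosed mice with transplantable tumor versus matched vehicle controls; endpoint ratio T/C reported.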

[1] = endpoint: mean survival time, dose: 400.0 mg/kg/injection, schedule: Q01DX001 (ip), vehicle: saline
[2] = endpoint: mean survival time, dose: 100.0 mg/kg/injection, schedule: Q04DX003 (ip), vehicle: saline with Tween-80
[3] = endpoint: mean survival time, dose: 200.0 mg/kg/injection, schedule: Q04DX003 (ip), vehicle: saline with Tween-80
[4] = endpoint: mean survival time, dose: 400.0 mg/kg/injection, schedule: Q04DX003 (ip), vehicle: saline with Tween-80
[5] = endpoint: mean survival time, dose: 50.0 mg/kg/injection, schedule: Q01DX009 (ip), vehicle: saline with Tween-80
[6] = endpoint: mean survival time, dose: 50.0 mg/kg/injection, schedule: Q04DX003 (ip), vehicle: saline with Tween-80
[7] = endpoint: mean survival time, dose: 100.0 mg/kg/injection, schedule: Q01DX009 (ip), vehicle: saline with Tween-80
[8] = endpoint: mean survival time, dose: 200.0 mg/kg/injection, schedule: Q01DX009 (ip), vehicle: saline with Tween-80

O=c1ccc2cc(Cl)cc([N+](=O)[O-])c2o1
T/C (endpoint: mean survival time, dose: 100.0 mg/kg/injection, schedule: Q01DX001 (ip), vehicle: Klucel (hydroxypropylcellulose) (HPC)): 102 % of control
T/C (endpoint: mean survival time, dose: 200.0 mg/kg/injection, schedule: Q01DX001 (ip), vehicle: Klucel (hydroxypropylcellulose) (HPC)): 99 % of control
T/C (endpoint: mean survival time, dose: 400.0 mg/kg/injection, schedule: Q01DX001 (ip), vehicle: Klucel (hydroxypropylcellulose) (HPC)): 99 % of control

O=c1[nH]c(=O)n(C(c2ccccc2)(c2ccccc2)c2ccccc2)cc1N(CCO)CCO
T/C (endpoint: mean survival time, dose: 50.0 mg/kg/injection, schedule: Q01DX001 (ip), vehicle: saline): 91 % of control
T/C (endpoint: mean survival time, dose: 100.0 mg/kg/injection, schedule: Q01DX001 (ip), vehicle: saline): 100 % of control
T/C (endpoint: mean survival time, dose: 200.0 mg/kg/injection, schedule: Q01DX001 (ip), vehicle: saline): 87 % of control
T/C [1]: 91 % of control

O=C(O)C(=O)C(O)C(O)C(O)CO.O=C(O)C(=O)C(O)C(O)C(O)CO.[NH-]C1CCCCC1[NH-].[Pt+2] (stereo not given)
T/C (endpoint: median survival time, dose: 3.12 mg/kg/injection, schedule: Q04DX003 (ip), vehicle: saline): 110 % of control and 111 % of control
T/C (endpoint: median survival time, dose: 6.25 mg/kg/injection, schedule: Q04DX003 (ip), vehicle: saline): 115 % of control and 112 % of control
T/C (endpoint: median survival time, dose: 12.5 mg/kg/injection, schedule: Q04DX003 (ip), vehicle: saline): 122 % of control
T/C (endpoint: median survival time, dose: 50.0 mg/kg/injection, schedule: Q04DX003 (ip), vehicle: saline): 185 % of control and 188 % of control
T/C (endpoint: median survival time, dose: 100.0 mg/kg/injection, schedule: Q04DX003 (ip), vehicle: saline): 250 % of control and 270 % of control
T/C (endpoint: median survival time, dose: 200.0 mg/kg/injection, schedule: Q04DX003 (ip), vehicle: saline): 175 % of control

Cc1cc(C)c(O)c(C)c1
T/C (endpoint: mean survival time, dose: 50.0 mg/kg/injection, schedule: Q01DX009 (ip), vehicle: Klucel (hydroxypropylcellulose) (HPC)): 96 % of control
T/C (endpoint: mean survival time, dose: 100.0 mg/kg/injection, schedule: Q01DX009 (ip), vehicle: Klucel (hydroxypropylcellulose) (HPC)): 93 % of control
T/C (endpoint: mean survival time, dose: 200.0 mg/kg/injection, schedule: Q01DX009 (ip), vehicle: Klucel (hydroxypropylcellulose) (HPC)): 93 % of control

N#[N+]c1cn(C2CC(O)C(CO)O2)c(=O)[nH]c1=O (stereo not given)
T/C [2]: 101 % of control
T/C [3]: 98 % of control
T/C [4]: 118 % of control

CC12OCCN1CC(COc1ccccc1)O2 (stereo not given)
T/C [2]: 104 % of control
T/C [3]: 98 % of control
T/C [4]: 110 % of control

O=C(CBr)Nc1c2c(nc3ccccc13)CCCC2
T/C (endpoint: mean survival time, dose: 75.0 mg/kg/injection, schedule: Q01DX001 (ip), vehicle: saline with Tween-80): 101 % of control
T/C (endpoint: mean survival time, dose: 150.0 mg/kg/injection, schedule: Q01DX001 (ip), vehicle: saline with Tween-80): 104 % of control
T/C (endpoint: mean survival time, dose: 300.0 mg/kg/injection, schedule: Q01DX001 (ip), vehicle: saline with Tween-80): 94 % of control

Cc1nc(N)nc(N)c1N1CCN(c2ccc(C(=O)NC(C(=O)O)C(=O)O)cc2)CC1
T/C (endpoint: median survival time, dose: 1.88 mg/kg/injection, schedule: Q01DX005 (ip), vehicle: Klucel + Tween-80): 117 % of control
T/C (endpoint: median survival time, dose: 3.75 mg/kg/injection, schedule: Q01DX005 (ip), vehicle: Klucel + Tween-80): 152 % of control
T/C (endpoint: median survival time, dose: 7.5 mg/kg/injection, schedule: Q01DX005 (ip), vehicle: Klucel + Tween-80): 150 % of control and 163 % of control
T/C (endpoint: median survival time, dose: 15.0 mg/kg/injection, schedule: Q01DX005 (ip), vehicle: Klucel + Tween-80): 167 % of control and 184 % of control
T/C (endpoint: median survival time, dose: 30.0 mg/kg/injection, schedule: Q01DX005 (ip), vehicle: Klucel + Tween-80): 181 % of control

N/C(=N\O)c1ncnc2c1ncn2C1OC(CO)C(O)C1O (stereo not given)
T/C (endpoint: median survival time, dose: 6.25 mg/kg/injection, schedule: Q01DX005 (ip), vehicle: distilled water + Tween-80): 107 % of control
T/C (endpoint: median survival time, dose: 12.5 mg/kg/injection, schedule: Q01DX005 (ip), vehicle: distilled water + Tween-80): 115 % of control
T/C (endpoint: median survival time, dose: 25.0 mg/kg/injection, schedule: Q01DX005 (ip), vehicle: distilled water + Tween-80): 108 % of control
T/C (endpoint: median survival time, dose: 50.0 mg/kg/injection, schedule: Q01DX005 (ip), vehicle: distilled water + Tween-80): 111 % of control
T/C (endpoint: median survival time, dose: 100.0 mg/kg/injection, schedule: Q01DX005 (ip), vehicle: distilled water + Tween-80): 111 % of control

CCOC(=O)c1ccc(NC(=O)Nc2ccc(Cl)cc2Cl)cc1
T/C (endpoint: mean survival time, dose: 12.5 mg/kg/injection, schedule: Q01DX001 (ip), vehicle: saline with Tween-80): 95 % of control
T/C (endpoint: mean survival time, dose: 12.5 mg/kg/injection, schedule: Q01DX009 (ip), vehicle: saline with Tween-80): 91 % of control and 92 % of control
T/C (endpoint: mean survival time, dose: 25.0 mg/kg/injection, schedule: Q01DX001 (ip), vehicle: saline with Tween-80): 93 % of control and 96 % of control
T/C (endpoint: mean survival time, dose: 25.0 mg/kg/injection, schedule: Q01DX009 (ip), vehicle: saline with Tween-80): 88 % of control and 97 % of control
T/C (endpoint: mean survival time, dose: 25.0 mg/kg/injection, schedule: Q04DX002 (ip), vehicle: saline with Tween-80): 95 % of control and 96 % of control
T/C (endpoint: mean survival time, dose: 25.0 mg/kg/injection, schedule: Q04DX003 (ip), vehicle: saline with Tween-80): 86 % of control
T/C (endpoint: mean survival time, dose: 50.0 mg/kg/injection, schedule: Q01DX001 (ip), vehicle: saline with Tween-80): 91 % of control
T/C [5]: 88 % of control
T/C (endpoint: mean survival time, dose: 50.0 mg/kg/injection, schedule: Q04DX002 (ip), vehicle: saline with Tween-80): 88 % of control and 96 % of control
T/C [6]: 91 % of control
T/C (endpoint: mean survival time, dose: 200.0 mg/kg/injection, schedule: Q01DX001 (ip), vehicle: saline with Tween-80): 92 % of control
T/C (endpoint: mean survival time, dose: 200.0 mg/kg/injection, schedule: Q04DX002 (ip), vehicle: saline with Tween-80): 88 % of control
T/C [3]: 89 % of control
T/C (endpoint: mean survival time, dose: 400.0 mg/kg/injection, schedule: Q04DX002 (ip), vehicle: saline with Tween-80): 86 % of control

O=C(N/N=C\c1ccc(Cl)cc1)c1ccccc1
T/C [5]: 94 % of control
T/C [7]: 101 % of control
T/C [8]: 95 % of control

Cc1cc2c(C(C)C)c(O)c(O)c(C=NCCO)c2c(O)c1-c1c(C)cc2c(C(C)C)c(O)c(O)c(C=NCCO)c2c1O
T/C (endpoint: median survival time, dose: 25.0 mg/kg/injection, schedule: Q01DX009 (ip), vehicle: saline with Tween-80): 105 % of control
T/C (endpoint: median survival time, dose: 50.0 mg/kg/injection, schedule: Q01DX009 (ip), vehicle: saline with Tween-80): 97 % of control
T/C (endpoint: median survival time, dose: 100.0 mg/kg/injection, schedule: Q01DX009 (ip), vehicle: saline with Tween-80): 101 % of control
T/C (endpoint: median survival time, dose: 200.0 mg/kg/injection, schedule: Q01DX009 (ip), vehicle: saline with Tween-80): 104 % of control
T/C (endpoint: median survival time, dose: 400.0 mg/kg/injection, schedule: Q01DX009 (ip), vehicle: saline with Tween-80): 89 % of control

CC(C)(C)NC(=O)Cc1ccccc1
T/C [5]: 95 % of control
T/C [7]: 97 % of control
T/C [8]: 95 % of control

O=C(O)c1cccc(N=Nc2ccc(N(CCCl)CCCl)cc2)c1
T/C (endpoint: mean survival time, dose: 10.0 mg/kg/injection, schedule: Q01DX009 (ip), vehicle: Klucel (hydroxypropylcellulose) (HPC)): 121 % of control
T/C (endpoint: mean survival time, dose: 20.0 mg/kg/injection, schedule: Q01DX009 (ip), vehicle: Klucel (hydroxypropylcellulose) (HPC)): 97 % of control
T/C (endpoint: mean survival time, dose: 40.0 mg/kg/injection, schedule: Q01DX009 (ip), vehicle: Klucel (hydroxypropylcellulose) (HPC)): 89 % of control

C#CC[N+](C)(C)CCNC(=O)CCCCCCCCCCCCCCC
T/C (endpoint: mean survival time, dose: 75.0 mg/kg/injection, schedule: Q01DX001 (ip), vehicle: saline): 102 % of control

[O-][n+]1cc(N=Nc2ccc(Cl)cc2)nn1-c1ccc(Cl)cc1
T/C [1]: 86 % of control

OC1CCCC2OC12 (stereo not given)
T/C (endpoint: mean survival time, dose: 100.0 mg/kg/injection, schedule: Q04DX003 (ip), vehicle: saline): 93 % of control
T/C (endpoint: mean survival time, dose: 200.0 mg/kg/injection, schedule: Q04DX003 (ip), vehicle: saline): 96 % of control
T/C (endpoint: mean survival time, dose: 400.0 mg/kg/injection, schedule: Q04DX003 (ip), vehicle: saline): 93 % of control

Nc1cc(Nc2ccc(Cl)cc2)c2nc(-c3ccc(Cl)cc3)c(-c3ccc(Cl)cc3)nc2n1
T/C [2]: 100 % of control
T/C [3]: 107 % of control
T/C [4]: 107 % of control

CC1OC(n2ccc(=O)[nH]c2=O)C(O)C(O)C1=O (stereo not given)
T/C (endpoint: median survival time, dose: 26.5 mg/kg/injection, schedule: Q01DX005 (ip), vehicle: Klucel (hydroxypropylcellulose) (HPC)): 102 % of control
T/C (endpoint: median survival time, dose: 53.0 mg/kg/injection, schedule: Q01DX005 (ip), vehicle: Klucel (hydroxypropylcellulose) (HPC)): 100 % of control
T/C (endpoint: median survival time, dose: 106.0 mg/kg/injection, schedule: Q01DX005 (ip), vehicle: Klucel (hydroxypropylcellulose) (HPC)): 107 % of control
T/C (endpoint: median survival time, dose: 212.0 mg/kg/injection, schedule: Q01DX005 (ip), vehicle: Klucel (hydroxypropylcellulose) (HPC)): 101 % of control

CCN(CC)c1ccc2cc3ccc(=[N+](CC)CC)cc-3oc2c1
T/C (endpoint: mean survival time, dose: 9.0 mg/kg/injection, schedule: Q01DX010 (ip), vehicle: saline): 106 % of control

C=CCCCCCCCCC(=O)NCC(C)C
T/C [7]: 104 % of control
T/C [2]: 91 % of control
T/C [8]: 104 % of control
T/C [3]: 102 % of control
T/C (endpoint: mean survival time, dose: 400.0 mg/kg/injection, schedule: Q01DX009 (ip), vehicle: saline with Tween-80): 98 % of control
T/C [4]: 100 % of control

COc1ccc(P(c2ccc(OC)cc2)c2ccc(OC)cc2)cc1
T/C [6]: 97 % of control
T/C [2]: 96 % of control
T/C [3]: 91 % of control
